Reference: article PMC8794255, “Small molecule inhibitor of Igf2bp1 represses Kras and a pro-oncogenic phenotype in cancer cells” (RNA Biology, 2021)
Several values for one entry are separate records, joined by “and”; a condition that tells them apart may be missing. Equal values may be shown once.

Tests used:
Igf2bp1 [1] = molecular target: T1, Igf2bp1 (Homo sapiens, UniProt Q9NZI8); experiment: Microscale thermophoresis (MST), full-length Igf2bp1; conditions: full-length protein, read-out: KD of compound binding to Igf2bp1
T1 construct: Recombinant full-length Igf2bp1 protein was labelled with RED-tris-NTA dye; made in house
T1 sequence (Q9NZI8 whole entry): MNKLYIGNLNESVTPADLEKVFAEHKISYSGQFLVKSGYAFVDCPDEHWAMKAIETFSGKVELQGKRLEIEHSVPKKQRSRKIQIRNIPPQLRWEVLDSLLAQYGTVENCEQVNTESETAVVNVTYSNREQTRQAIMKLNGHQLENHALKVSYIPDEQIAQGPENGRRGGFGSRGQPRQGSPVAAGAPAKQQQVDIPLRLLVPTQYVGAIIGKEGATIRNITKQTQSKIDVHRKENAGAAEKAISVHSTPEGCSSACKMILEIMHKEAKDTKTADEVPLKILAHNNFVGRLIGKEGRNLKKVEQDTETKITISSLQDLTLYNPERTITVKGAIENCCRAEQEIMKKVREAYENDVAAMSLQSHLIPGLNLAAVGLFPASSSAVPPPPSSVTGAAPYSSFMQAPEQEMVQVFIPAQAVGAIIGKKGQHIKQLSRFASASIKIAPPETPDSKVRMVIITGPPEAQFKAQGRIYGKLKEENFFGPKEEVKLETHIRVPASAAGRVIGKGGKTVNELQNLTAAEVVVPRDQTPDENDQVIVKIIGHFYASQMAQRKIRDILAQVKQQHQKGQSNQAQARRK
Description: Recombinant full-length Igf2bp1 protein was labelled with RED-tris-NTA dye using a Monolith NT His-Tag Labelling Kit (NanoTemper) while RRM12, KH12 and KH34 di-domain peptides were labelled using the Protein Labelling Kit RED NHS 2nd generation (NanoTemper). Labelled proteins were spun at 15,000 g for 5 min to eliminate aggregates. All samples were 2X labelled protein mix of Igf2bp1 (200 nM) in PBST and were combined (1:1) with serial dilutions of compound or Kras6 RNA in binding buffer (10mMTris pH = 7.5, 100 mM NaCl, 0.1 mM EDTA, 0.06% IPEGAL, 0.02 μg/μL tRNA, 2 mM DTT, 0.1 μg/μL heparin) in final volume of 20 μL, room temperature for 15 min. Samples were then loaded into standard capillaries (NanoTemper) and read in the Monolith NT.115 scanner (NanoTemper) using the red filter with reading conditions of 95% LED power and 40% MST power, 5 sec fluorescence before, 30 sec MST on, 5 sec fluorescence after and 25 sec delay between samples. Results were analysed using the MO Control software (NanoTemper) for curve fitting to KD.

Igf2bp1 [2] = molecular target: T1, Igf2bp1; experiment: Fluorescence polarization (FP) assay of Igf2bp1 binding to fluorescent Kras 6 RNA; conditions: FP dose response; read-out: IC50, inhibition of Igf2bp1 binding to Kras 6 RNA
Description: For the small-molecule screen, compounds were obtained from the collection maintained at the Grand Israel National Center for Personalized Medicine, consisting of molecules purchased from commercial vendors. Labelled RNA (10 nM) was incubated with recombinant Igf2bp1 protein (400 nM) in FAM-RNA buffer (10 mM Tris pH 8.0, 75 mM KCl, 0.5 mM EDTA, 1 mM DTT, 0.0188 U/μL RNAsin, 0.0005 μg/mL heparin, 0.0001 μg/μL tRNA, 0.01% Triton X-100, 3 mM MgCl2, 0.05% IGEPAL) at room temperature for 15 min. 7 μL of this reaction mix was aliquoted with GNF WDII (USA) into wells of 1536 well plates, with a final concentration of 20 μM compound or DMSO. The plates were spun down and read in a BMG Pherastar FS (Germany) plate reader, in FP mode with a 485/520/520 polarization filter, calibrated to 35 mP for free fluorescein with similar total intensity as experimental samples. […]
To determine the quality of our screening assay, the Z’ factor for each plate was calculated with a Z’ factor greater than 0.5 indicating a robust assay suitable for high throughput screening. Compounds that altered the overall fluorescence intensity compared to controls were considered auto florescence and excluded from further analysis. […] Any small molecule that causes a change of more than three standard deviations from the mean is determined appropriate for further investigation.

Igf2bp1 [3] = molecular target: T1, Igf2bp1; experiment: EMSA, Igf2bp1 with fluorescent Kras 6 RNA; format: binding; conditions: compound pre-incubated with protein; 7773 at 200 μM
Description: Recombinant Igf2bp1 protein was serially diluted (1:1) starting at an initial concentration of 10,000 nM in 0.75 μg heparin, in a total volume of 13 μL. […] 2 μL RNA was added to each well protein sample, and after a 30 min incubation at room temperature in the dark, loading dye (3 μL) (30% glycerol, 0.01% bromocresol green) was added to each mixture. For compound inhibition experiments, compounds or DMSO were incubated for 4 hours at 37 °C with the protein prior to adding the RNA. Samples were electrophoresed on native TBE polyacrylamide gels (6% acrylamide/bis-acrylamide 37.5:1, 0.5X TBE) that had been pre-run for 30 min. Gels were run at 120 V in 0.5X TBE, at 4°C in the dark. They were then carefully washed and scanned using a Typhoon FLA9500 imager using Alexa 488 laser and LPB1/2 filter. Igf2bp1-RNA complex formation was quantified using the ImageJ software. Prism6 software was used for curve fitting and KD calculations.

[4] = tested on: Igf2bp1-cMyc RNA interaction; set-up: method as in PMID 28846937; conditions: fluorescence polarization; cited from earlier work
[5] = set-up: method as in PMID 28846937; conditions: cited from earlier work

O=C(c1cccc(-n2cnnn2)c1)N1CCCC(Nc2ccc3c(c2)OCO3)C1 (centres unmarked) [compound 393]
Kd (Igf2bp1 [1]): > 100 µM and ~120 µM
IC50 (Igf2bp1 [2]): ~90 µM
Inhibition of Igf2bp1 binding to Kras 6 RNA (gel shift) (Igf2bp1 [3]): lower, but observable, inhibition of RNA binding

NC(=O)c1ccccc1N=Cc1ccc(Br)s1 [BTYNB]
Inhibition of Igf2bp1-cMyc RNA interaction in vitro [4]: inhibited Igf2bp1-cMyc RNA interaction in vitro
Effect on cell proliferation [5]: appears to inhibit cell proliferation
